Assay results as given in paper PMC5294914 (Cell host & microbe, 2016).

Target: FmlH (Escherichia coli, UniProt A0A0H2V7F6)
Experiment: solution binding study

In the case of `OC[C@H]1OC(O)[C@H](O)[C@@H](O)[C@H]1O` (stereo partly drawn) [D-Gal], the Kd is reported as 625 µM.
